According to US20120046273A1, “COMPOUNDS AND COMPOSITIONS FOR COGNITION-ENHANCEMENT, METHODS OF MAKING, AND METHODS OF TREATING” (MITHRIDION, INC., priority 2009, published 2012):
Entries after “also recorded” stand apart in the source; their conditions may differ. Where two headings read alike, the source gives them in different places. One block for each compound: values may come before it.

How the values were obtained:
[1] = biological target: T1, human muscarinic M1 receptors (Homo sapiens, UniProt P11229); experiment: Inositol phosphate production in huM1/A9L cells (IPOne TR-FRET); type: cell-based; conditions: for huM1/A9L Smax: percentage of maximal stimulation by carbachol; for huM1/A9L ED50 relative to CCh: potency relative to carbachol
T1 construct: expressed in transfected cells; host or cells: A9L cells (gift from Professor W Messer)
T1 sequence (P11229 1-460): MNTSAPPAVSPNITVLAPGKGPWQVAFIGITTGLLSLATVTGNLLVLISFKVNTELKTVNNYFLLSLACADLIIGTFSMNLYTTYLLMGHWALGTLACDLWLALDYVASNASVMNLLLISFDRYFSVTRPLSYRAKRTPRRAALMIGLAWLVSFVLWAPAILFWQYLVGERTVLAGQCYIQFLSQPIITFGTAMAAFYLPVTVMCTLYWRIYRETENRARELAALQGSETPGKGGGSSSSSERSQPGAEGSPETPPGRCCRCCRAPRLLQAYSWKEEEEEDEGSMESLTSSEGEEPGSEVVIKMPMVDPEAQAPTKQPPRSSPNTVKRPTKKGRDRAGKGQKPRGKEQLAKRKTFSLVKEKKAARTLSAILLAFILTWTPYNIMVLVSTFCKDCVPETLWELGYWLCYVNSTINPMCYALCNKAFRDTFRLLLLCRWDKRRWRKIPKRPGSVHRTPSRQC
Experimental: (§1) Muscarinic M1 and M3 agonist activity was evaluated by measuring the stimulation of inositol phosphate (IP) production in the presence of lithium chloride from A9L cells transfected with expression plasmids containing human muscarinic M1 and M3 receptors, respectively. The cell lines were a gift from Professor W Messer, and the methods were as described in Tejada F R et al. J. Med. Chem. 2006; 49: 7518-31 except that the assay was scaled down to run in 384 well plates, and IP was measured in the cell lysates using the non-isotopic IPOne TR-FRET assay (CIS-BIO, Inc).
(§2) Cells were grown to 90% confluence in 384 well hi-base plates (Greiner Bio-One), compounds were added at suitable concentrations in growth medium containing 10 mM LiCL, buffered with an extra 10 mM HEPES (pH7.4), and incubated for 60 minutes at 37° C. Cells were lysed and assayed for IP following the manufacturer's instructions.
(§3) The value for a full agonist is 100%, while partial agonists give values below 100%.

[2] = biological target: T2, human muscarinic M3 receptors (Homo sapiens, UniProt P20309); experiment: Inositol phosphate production in huM3/A9L cells (IPOne TR-FRET); type: cell-based; conditions: for huM3/A9L Smax: percentage of maximal stimulation by carbachol; for huM3/A9L ED50 relative to CCh: potency relative to carbachol
T2 construct: expressed in transfected cells; host or cells: A9L cells (gift from Professor W Messer)
Experimental: as §1, §2, §3

[3] = tested on: apomorphine induced climbing; experiment: Apomorphine induced climbing model of psychosis; type: in vivo, CD-I mice; conditions: mice, sc
Experimental: As described in Costall et. al. European Journal of Pharmacology 1978, 50, 39. individual CD-I mice, 1-2 months old, were placed in a cylindrical wire mesh cage (13.2 cm high×13.2 cm diameter) constructed of steel wire 1 mm thick spaced at 1.2 cm^2. Cylinders were placed in a standard OptiMICE mouse cage (29×32×9×29 cm wide and 14 cm high) with adequate wood chip bedding provided. Observations of climbing (defined as 3 or more paws off the ground) were carried out every 5 minutes at a duration of 1 minute for 30 minutes. Animals were injected subcutaneously under isoflurane anesthesia with test compounds, reference compounds, which included clozapine, haloperidol, olanzapine and xanomeline, or PBS as a control. This was followed 5 minutes later by 2 mg/kg apomorphine hydrochloride. All drugs were dissolved in PBS or a mixture of (by volume) 96% PBS and 4% hydroxypropyl-beta-cyclodextrin, and dosed at a rate of 5 ml per kilogram of body weight. Following injections, animals were replaced in the mesh cages and observed for climbing (defined as 3 or more paws off the ground) every 5 minutes for a duration of 1 minute for 60 minutes after dosing.

human FMO1 Supersomes = biological target: T3, human FMO1 Supersomes (Homo sapiens, UniProt Q01740); experiment: Metabolism by flavin monoxygenase 1 (FMO1) Supersomes; type: in vitro ADME
T3 construct: purchased BD Biosciences 456241
T3 sequence (Q01740 1-532): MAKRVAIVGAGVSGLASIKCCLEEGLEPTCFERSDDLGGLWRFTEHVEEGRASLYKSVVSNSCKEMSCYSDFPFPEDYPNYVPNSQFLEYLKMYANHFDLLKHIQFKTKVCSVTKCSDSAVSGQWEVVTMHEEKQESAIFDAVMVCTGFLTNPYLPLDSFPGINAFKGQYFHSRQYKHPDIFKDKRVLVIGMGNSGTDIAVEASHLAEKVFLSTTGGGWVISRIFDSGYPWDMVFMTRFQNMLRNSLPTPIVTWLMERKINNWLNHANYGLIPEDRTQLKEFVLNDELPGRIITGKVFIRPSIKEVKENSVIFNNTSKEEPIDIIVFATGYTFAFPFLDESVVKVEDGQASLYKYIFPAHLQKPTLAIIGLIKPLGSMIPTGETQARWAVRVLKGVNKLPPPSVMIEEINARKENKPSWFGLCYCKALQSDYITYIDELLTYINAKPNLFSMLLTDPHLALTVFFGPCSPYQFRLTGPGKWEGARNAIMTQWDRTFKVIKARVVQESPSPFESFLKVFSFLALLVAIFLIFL
Experimental: […] Aliquots were removed every 10 minutes, and 1% formic acid was added to halt the reaction. Samples were centrifuged, filtered through 0.2 micron spinfilter and the amount of each compound in the supernatants was quantitated using LC/MS/MS.

[4] = tested on: pooled male Sprague-Dawley rat liver microsomes; experiment: Metabolism by rat liver microsomes; type: in vitro ADME; conditions: 6 hours incubation
Experimental: (§4) Compounds were incubated with pooled male Sprague-Dawley rat liver microsomes (BD Biosciences, #452501) and an NADP-regenerating system in a phosphate buffer (pH 7.4) for a total of 6 hours. Aliquots were removed every 2 hours, and 1% formic acid was added to halt the reaction. Samples were centrifuged, filtered through 0.2 micron spinfilter and the amount of each compound in the supernatants was quantitated using LC/MS/MS.

[5] = tested on: pooled male human liver microsomes; experiment: Metabolism by human liver microsomes; type: in vitro ADME; conditions: 6 hours incubation
Experimental: as §4, with “human” for “Sprague-Dawley rat”, “#452172)” for “#452501)”

[6] = tested on: salivary gland inositol phosphate signaling pathway; experiment: In vivo tissue inositol phosphate signaling pathway activation, salivary gland; set-up: species or system rat; conditions: for block of increase in salivary gland inositol phosphate caused by 82: 1 mg/kg of 82; for inhibition of salivary gland inositol phosphate response to MCD-386: 50 mg/kg MCD-386, antagonist 0.3 mg/kg
Experimental: (§5) Experimental compounds or drug substances were administered using standard techniques to Long Evans Hooded rats weighing 225 to 350 grams, and which had been pretreated with a subcutaneous injection of lithium chloride at a suitable dose between 3 and 10 mmoles per kg. At suitable times the animals were briefly anesthetized using 5% isoflurane and euthanized by decapitation. The brains and submaxillary salivary glands were rapidly dissected out, and the hippocampuses were dissected from the brains. The dissected tissues were homogenized in a suitable volume of ice-cold phosphate-buffered saline containing 10 mM lithium chloride, pH7.4, using a tissue homogenizer, and used immediately or frozen in aliquots at −80degC. for future use. The concentration of inositol-1-phosphate was determined in the homogenates using the IPOne TR-FRET assay (CisBio cat no 621PAPEB), following the manufacturer's instruction

anesthetized rats = experiment: Salivation on iontophoretic transdermal delivery of agonist and antagonist from one patch; type: in vivo, rat; conditions: patch with 1 mg of 82 plus 0.01mg antagonist
Experimental: Experimental compounds and drug substances were delivered transdermally in rats using iontophoresis as follows. The fur was shaved from the backs of Long Evans Hooded rats weighing 225 to 325 grams, using electric clippers. Experimental compounds and drug substances were formulated at suitable concentrations an aqueous mixture of the following composition:
The polyvinyl alcohol/water was heated to 95 degC. until it became clear, then the other constituents were added and mixed well. The mixture was introduced into suitable molds containing a disc-shaped cavity 2.2 cm diameter and 2.2 mm deep. Molds may be fabricated using two glass sheets separated by a silicone rubber sheet with suitable sized cavities and filling ports cut-outs. The molds were subject to 3 freeze-thaw cycles at −80degC. and 20degC. until a firm cryogel was obtained. The gels were separated from the molds and trimmed into a circular shape. The gel was placed in a silicone rubber casing with one face in contact with a circular silver foil anodic electrode (22 mm dia/250 microns thick), and the assembly was placed on the shaved skin of the rat such that the other face was in contact with the skin on one side of the back of the rat. The rubber casing formed a seal over and around the gel/electrode assembly. […] This was placed on the other side of the shaved back of the rat, the edges of the gel discs being about 20 mm apart at their nearest point. A DC voltage was applied across the two patches from a constant-current DC power supply and the voltage adjusted to obtain the desired current, such that the skin of the animal completed the electrical circuit.
The devices were placed on shaved backs of anesthetized rats and salivation was measured.
The animals were placed slightly head-down on an inclined, heated ramp. Rectal temperature was monitored using a thermocouple and the temperature of the heating pad was adjusted manually to maintain normal body temperature. Saliva was collected from the mouth by absorption onto pre-weighed slips of filter paper. The filter paper was changed periodically and the amount of saliva was measured by weighing the filter paper slips

[7] = tested on: hippocampal inositol phosphate signaling pathway; experiment: In vivo tissue inositol phosphate signaling pathway activation, hippocampus; set-up: species or system rat; conditions: 1 mg/kg of 82; antagonist 0.03 mg/kg
Experimental: as §5

[8] = antagonist 0.1 mg/kg (oxybutinin or darifenacin)

T2 sequence (P20309 whole entry): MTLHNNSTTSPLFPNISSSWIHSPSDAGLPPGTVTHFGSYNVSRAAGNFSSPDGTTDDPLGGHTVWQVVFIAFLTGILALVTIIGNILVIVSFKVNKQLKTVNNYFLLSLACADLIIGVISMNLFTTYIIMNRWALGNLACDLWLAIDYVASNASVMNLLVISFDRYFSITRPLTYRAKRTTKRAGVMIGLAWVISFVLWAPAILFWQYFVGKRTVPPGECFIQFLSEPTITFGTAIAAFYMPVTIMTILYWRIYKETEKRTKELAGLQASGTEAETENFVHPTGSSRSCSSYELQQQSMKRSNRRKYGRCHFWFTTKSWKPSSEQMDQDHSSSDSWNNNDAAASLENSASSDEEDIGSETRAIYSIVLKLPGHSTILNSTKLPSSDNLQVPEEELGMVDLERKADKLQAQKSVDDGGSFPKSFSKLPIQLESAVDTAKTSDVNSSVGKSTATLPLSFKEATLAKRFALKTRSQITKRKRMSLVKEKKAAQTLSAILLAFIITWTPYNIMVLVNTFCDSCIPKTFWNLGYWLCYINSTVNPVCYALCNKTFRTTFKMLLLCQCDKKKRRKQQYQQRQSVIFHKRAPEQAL

PAMPA (? × 106): 7.95 ? × 106
Structure (SMILES): Clc1cccc(Cl)c1N=C1NCCN1 [Clonidine, reference compound]

Structure (SMILES): [2H]C([2H])([2H])c1noc(C2CCCNC2)n1 (stereo not shown) [Compound 88, 3-D3-Methyl-5-(piperidin-3-yl)-1,2,4-oxadiazole]
huM1/A9L Smax [1]: 116%
huM1/A9L ED50 relative to CCh [1]: + (potency 2-10x CCh)
huM3/A9L Smax [2]: 60%
huM3/A9L ED50 relative to CCh [2]: +/− (potency 0.5-2x CCh)
activity in the apomorphine induced climbing model [3]: potent and effective
extent of metabolism in FMO Supersomes (human FMO1 Supersomes): less than half metabolized
extent of metabolism in rat liver microsomes [4]: far more stable than compounds 126 and 127
extent of metabolism in human liver microsomes [5]: metabolized significantly less in human liver microsomes than in rat liver microsomes

potency and efficacy at M1 muscarinic receptors [1]: reasonable potency and efficacy
huM1/A9L ED50 relative to CCh [1]: + (potency 2-10x CCh)
huM3/A9L ED50 relative to CCh [2]: + (potency 2-10x CCh)
extent of metabolism in rat liver microsomes [4]: nearly completely metabolized
extent of metabolism in human liver microsomes [5]: nearly completely metabolized
PAMPA (? × 106) (PAMPA test): 12.75 ? × 106
rate of crossing the lipid layer in the PAMPA test (PAMPA test): slightly better
Structure (SMILES): Cc1noc(C2=CCCN(C)C2)n1 [Compound 126, 3-methyl-5-(1-methyl-1,2,5,6-tetrahydropyridin-3-yl)-1,2,4-oxadiazole, reference compound]
selectivity between M1 and M3 receptors [1]: some selectivity for M1 versus M3 receptors
extent of metabolism in FMO Supersomes (human FMO1 Supersomes): almost completely metabolized; also recorded: nearly completely metabolized

Structure (SMILES): Cc1noc(C2CN3CCC2CC3)n1 (stereo not shown) [Compound 127, 3-methyl-5-(quinuclidin-3-yl)-1,2,4-oxadiazole, reference compound]
selectivity between M1 and M3 receptors [1]: essentially non-selective
huM1/A9L Smax [1]: 50-100%
huM1/A9L ED50 relative to CCh [1]: ++ (potency >10x CCh)
huM3/A9L Smax [2]: 50-100%
huM3/A9L ED50 relative to CCh [2]: ++ (potency >10x CCh)
extent of metabolism in FMO Supersomes (human FMO1 Supersomes): almost completely metabolized
PAMPA (? × 106) (PAMPA test): 3.02 ? × 106
rate of crossing the lipid layer in the PAMPA test (PAMPA test): significantly better

Structure (SMILES): NC(=O)C(c1ccccc1)(c1ccccc1)[C@@H]1CCN(CCc2ccc3c(c2)CCO3)C1 [darifenacin]
block of increase in salivary gland inositol phosphate caused by 82 [6, 8]: less effective
inhibition of salivary gland inositol phosphate response to MCD-386 [6]: less effective
reduction of salivation caused by transdermal iontophoretic delivery of 82 (anesthetized rats): reduced salivation, but were less effective

Structure (SMILES): C[N+]1(C)CCC(OC(=O)C(O)(c2ccccc2)C2CCCC2)C1 (stereo not shown) [glycopyrrolate]
block of increase in salivary gland inositol phosphate caused by 82 ([6]; antagonist 0.03 mg/kg): can block
inhibition of salivary gland inositol phosphate response to MCD-386 [6]: virtually completed inhibited
block of increase in hippocampal inositol phosphate caused by 82 [7]: without blocking the increase in hippocampal inositol phosphate
reduction of salivation caused by transdermal iontophoretic delivery of 82 (anesthetized rats): greatly reduced

Structure (SMILES): CCN(CC)CC#CCOC(=O)C(O)(c1ccccc1)C1CCCCC1 (stereo not shown) [oxybutinin]
block of increase in salivary gland inositol phosphate caused by 82 [6, 8]: less effective
inhibition of salivary gland inositol phosphate response to MCD-386 [6]: less effective
reduction of salivation caused by transdermal iontophoretic delivery of 82 (anesthetized rats): reduced salivation, but were less effective

Structure (SMILES): CC(C)[N+](C)(CCOC(=O)C1c2ccccc2Oc2ccccc21)C(C)C [propantheline]
block of increase in salivary gland inositol phosphate caused by 82 ([6]; antagonist 0.03 mg/kg): can block
inhibition of salivary gland inositol phosphate response to MCD-386 [6]: virtually completed inhibited
block of increase in hippocampal inositol phosphate caused by 82 [7]: without blocking the increase in hippocampal inositol phosphate
reduction of salivation caused by transdermal iontophoretic delivery of 82 (anesthetized rats): greatly reduced
